Measurements as given in ChEMBL document CHEMBL5604063, “ASAP - DENV-2 NS2B-NS3 protease fluorescence dose response” (2024).
Where “and” joins values, the source holds several entries; their conditions need not be identical. Equal entries are not always repeated.

What was measured:
Genome polyprotein [1] = target: T1, Genome polyprotein (dengue virus type 2, UniProt P29990); format: functional, Thailand/16681/1984
Genome polyprotein [2] = target: T1, Genome polyprotein; format: functional, Thailand/16681/1984; remark: listed apart in the source

T1 sequence (P29990 1346-1475 limits assumed): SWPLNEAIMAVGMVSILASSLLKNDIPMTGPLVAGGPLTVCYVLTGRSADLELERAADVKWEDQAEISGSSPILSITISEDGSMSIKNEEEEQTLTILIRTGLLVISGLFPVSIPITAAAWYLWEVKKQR
T1 sequence (P29990 1476-2093 limits assumed): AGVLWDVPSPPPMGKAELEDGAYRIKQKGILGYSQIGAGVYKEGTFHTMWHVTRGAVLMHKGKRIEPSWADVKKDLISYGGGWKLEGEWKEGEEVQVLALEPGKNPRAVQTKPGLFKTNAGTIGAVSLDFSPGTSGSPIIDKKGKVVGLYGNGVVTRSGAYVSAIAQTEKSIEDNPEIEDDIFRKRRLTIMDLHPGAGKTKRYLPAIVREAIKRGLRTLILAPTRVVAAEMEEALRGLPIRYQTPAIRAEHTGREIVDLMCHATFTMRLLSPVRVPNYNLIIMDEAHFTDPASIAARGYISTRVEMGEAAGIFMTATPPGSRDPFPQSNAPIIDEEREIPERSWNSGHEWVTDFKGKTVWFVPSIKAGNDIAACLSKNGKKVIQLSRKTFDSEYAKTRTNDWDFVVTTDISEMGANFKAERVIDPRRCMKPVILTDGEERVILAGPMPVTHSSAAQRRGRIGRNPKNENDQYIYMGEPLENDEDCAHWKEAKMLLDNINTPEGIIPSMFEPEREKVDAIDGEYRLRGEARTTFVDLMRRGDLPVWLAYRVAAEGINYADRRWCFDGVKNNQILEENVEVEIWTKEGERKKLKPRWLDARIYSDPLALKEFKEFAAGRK

Structure (SMILES) | IC50 (Genome polyprotein [1]) | IC50 (Genome polyprotein [2])
O=C(O)COc1ccc(Cl)cc1[C@H](Nc1ccc2c(c1)CNC2)C(=O)NCC(F)F | > 100 µM | > 99.5 µM
O=C(Nc1cc(Cl)cc(-c2ccc3cc(C(=O)O)[nH]c3c2)c1)OCc1ccccc1 | 7.4 µM and 4.18 µM | 7.42 µM
CC[C@H](C(=O)Nc1cccc(CN)c1)n1cc(Br)c(C(F)(F)F)n1 | > 100 µM | > 99.5 µM
CS(=O)(=O)c1cc(CN)cc(NC(=O)c2cc(Cl)cc(NC(=O)OCc3ccccc3)c2)c1 | > 100 µM | > 99.5 µM
NCc1cc(CC(=O)O)cc([C@H]2C[C@@H]2c2cc(Cl)cc(NC(=O)OCc3ccccc3)c2)c1 | > 100 µM | > 99.5 µM
O=C(Nc1ccc2c(c1)CNC2)c1ccc2[nH]cc(C3CCNCC3)c2c1 | 75.9 µM | 19.5 µM and 31.3 µM
O=C(Nc1ccc2c(c1)CNC2)c1cc(F)cc2[nH]c(CCc3cccnc3)nc12 | > 100 µM | > 99.5 µM
O=C(Nc1ccc2c(c1)CN[C@H]2C1CC1)c1cc(F)cc2[nH]ncc12 | 15.7 µM and 16.1 µM | 13.5 µM
NCc1cc(NC(=O)c2cc(Cl)cc(NC(=O)OCc3ccccc3)c2)cc(-c2cccc(CC(=O)O)c2)c1 | > 100 µM | > 99.5 µM
O=C1Cc2c(cccc2C(=O)N[C@H]2CCC23CCOCC3)N1 | > 100 µM | > 99.5 µM
CCc1cc(NC(=O)OCc2ccccc2)cc(C(=O)Nc2cccc(CN)c2)c1 | > 100 µM | > 99.5 µM
CNC(=O)[C@H](Nc1cccc(C(=O)O)c1)c1cc(Cl)cc2[nH]ncc12 | > 100 µM | > 99.5 µM
C=CC[C@H]1NCc2cc(N[C@H](C(=O)NC(C)C)c3cccc4[nH]ncc34)ccc21 | > 100 µM | > 99.5 µM
NCc1cccc(N[C@H](C#CCO)c2cc(Cl)cc(NC(=O)OCc3ccccc3)c2)c1 | > 100 µM | 93.8 µM
Cc1cccc(-c2nc3c(C(=O)Nc4ccc5c(c4)CNC5)cc(Cl)cc3[nH]2)c1O | 18.7 µM | 7.23 µM and 5.37 µM and 4.3 µM
C=CC[C@H]1NCc2cc(N[C@H](C(=O)NC(C)C)c3cc(Cl)cc4[nH]ncc34)ccc21 | 56.9 µM | 63.9 µM
Cc1cc(NC(=O)c2cc(C3CC3)n(C)c2C)ncc1S(N)(=O)=O | > 100 µM | > 99.5 µM
CNC(=O)[C@H](Nc1cc(Cl)cc(NC(=O)OCc2ccccc2)c1)c1cccc(CN)c1 | > 100 µM | > 99.5 µM
CCS(=O)(=O)c1ccc(Cl)cc1[C@H](Nc1ccc2c(c1)CNC2)C(=O)NCC(F)F | > 100 µM | > 99.5 µM
O=C(Nc1cc(-c2cccnc2)ccn1)c1cc(C2CC2)[nH]c(=O)c1 | > 100 µM | > 99.5 µM

Structure (SMILES) | IC50 (Genome polyprotein [1]) | IC50 (Genome polyprotein [2])
Cc1c(C(=O)Nc2ccc3c(c2F)CCN(C)C3=O)cc(C2CC2)n1C | > 100 µM | > 99.5 µM
O=C1Cc2cc(C(=O)Nc3ccc4c(c3)CNC4)c(Cl)cc2N1 | 35.9 µM and 22.7 µM | > 99.5 µM
CC(C)(C)OC(=O)N1Cc2ccc(NC(=O)c3cc(Cl)cc4[nH]ncc34)cc2C1 | > 100 µM | > 99.5 µM
CC(C)(c1nc2c(C(=O)Nc3ccc4c(c3)CNC4)cc(F)cc2[nH]1)S(C)(=O)=O | 34.3 µM and 51.7 µM | 33.6 µM and 26.3 µM
CC(C)(O)c1cncc(NC(=O)c2cccc3c2CC(=O)N3)c1 | > 100 µM | > 99.5 µM
CNc1ncc(C(F)(F)F)cc1-c1ccc2[nH]c(C(=O)O)cc2c1 | > 100 µM | > 99.5 µM
Cn1nccc1-c1cc(NC(=O)c2cc(F)cc3[nH]ncc23)cc2c1CNC2 | 81.4 µM | 54.1 µM
CCCn1nc(C)c2c(C(=O)Nc3cccc(CN)c3)cc(C)nc21 | > 100 µM | > 99.5 µM
O=C(Nc1cc(Cl)cc(C(=O)N2CCC[C@H]2c2nnn[nH]2)c1)OCc1ccccc1 | > 100 µM | > 99.5 µM
NCc1cccc(NC(=O)[C@@H](NC(=O)OCc2ccccc2)C2CCN(S(=O)(=O)C3CCCC3)CC2)c1 | > 100 µM | > 99.5 µM
Cc1nc(C2CC2)[nH]c1C(=O)Nc1cc(-c2cccnc2)ccn1 | > 100 µM | > 99.5 µM
N[C@H]1CCc2ccc(NC(=O)c3cc(Cl)cc(NC(=O)OCc4ccccc4)c3)cc21 | > 100 µM | 91.2 µM
CNC(=O)C[C@H](Nc1cccc(F)n1)c1cc(Cl)cc(Br)c1 | > 100 µM | > 99.5 µM
CC(C)[C@H](CC(=O)O)NC(=O)c1cc(Cl)cc(NC(=O)OCc2ccccc2)c1 | > 100 µM | > 99.5 µM
O=C(Nc1ccc2c(c1)CNC2)c1cccc2c1OCCN2 | > 100 µM | > 99.5 µM
Cc1oc(C(=O)Nc2cccc(CN)c2)cc1COc1ccccc1 | > 100 µM | > 99.5 µM
O=C(Nc1ccc2c(c1)CNC2)c1cc(Cl)cc2[nH]c(-c3cnc(C4CC4)o3)nc12 | 19.4 µM | 58.7 µM
CC(=Cc1cccc(CN)c1)c1cc(Cl)cc(NC(=O)OCc2ccccc2)c1 | > 100 µM | 63.2 µM
C[C@H](N)c1cccc(NC(=O)c2cc(Cl)cc(NC(=O)OCc3ccccc3)c2)c1 | > 100 µM | 68.6 µM
COCCN1C(=O)C[C@H](C(=O)Nc2cccc(CN)c2)[C@H]1c1ccc(Cl)c(F)c1 | > 100 µM | > 99.5 µM

Structure (SMILES) | IC50 (Genome polyprotein [1]) | IC50 (Genome polyprotein [2])
O=C(Nc1ccc2c(c1)CNC2)c1ccccc1-n1cccc1 | > 100 µM | > 99.5 µM
NCc1cccc(NC(=O)c2cccc3c2CCC3)c1 | > 100 µM | > 99.5 µM
C(#C[C@H](Nc1ccc2c(c1)CNC2)c1cccc2[nH]ncc12)c1ccccc1 | > 100 µM | > 99.5 µM
O=C(Nc1ccc2c(c1)CNC2)N1CCC[C@@H]1COCc1ccccc1 | > 100 µM | > 99.5 µM
NCc1cccc(NC(=O)c2cc(Cl)cc(OC3CC3)c2)c1 | > 100 µM | > 99.5 µM
NCc1cccc(NC(=O)[C@H](NC(=O)OCc2ccccc2)C2CCN(S(=O)(=O)c3ccccc3)CC2)c1 | > 100 µM | > 99.5 µM
CS(=O)(=O)Nc1cccc(NC(=O)c2cc(Cl)cc(NC(=O)OCc3ccccc3)c2)c1 | > 100 µM | > 99.5 µM
Cc1c(C(=O)NCc2ccnc(OC3CCOCC3)c2)cc(C2CC2)n1C | > 100 µM | > 99.5 µM
CCc1cc(C(=O)Nc2cccc(-c3nnn[nH]3)c2)nn1-c1ccccc1 | > 100 µM | > 99.5 µM
CCNCc1ccc(NC(=O)c2cc(Cl)cc3[nH]ncc23)cc1 | > 100 µM | > 99.5 µM
CC(C)CO[C@]1(C)C(=O)Nc2cc(F)cc(C(=O)Nc3ccc4c(c3)CNC4)c21 | > 100 µM | > 99.5 µM
CN(C)Cc1cc(Cl)cc(C(=O)Nc2cccc(CN)c2)c1 | > 100 µM | > 99.5 µM
C[C@]1(OCCO)C(=O)Nc2cc(F)cc(C(=O)Nc3ccc4c(c3)CNC4)c21 | > 100 µM | > 99.5 µM
N[C@@H]1CC[C@H](NC(=O)c2cc(Cl)cc(NC(=O)OCc3ccccc3)c2)C1 | > 100 µM | > 99.5 µM
CC(F)(F)c1cccc(NC(=O)c2cc(Cl)cc(NC(=O)OCc3ccccc3)c2)c1 | > 100 µM | > 99.5 µM
CC[C@H]1CN(C(=O)Nc2ccc3c(c2)CNC3)C[C@@H]1c1ccc(OC)cc1 | > 100 µM | > 99.5 µM
CCOCCNC(=O)[C@H](Nc1ccc2c(c1)CNC2)c1cc(Cl)cc2[nH]ncc12 | > 100 µM | > 99.5 µM
Cc1oc(C2CC2)nc1C(=O)Nc1cc(-c2cccnc2)ccn1 | > 100 µM | > 99.5 µM
N#C[C@H](Nc1cccc(-c2nn[nH]n2)c1)c1cc(Cl)cc2[nH]ncc12 | 88.3 µM | > 99.5 µM
